Literature values in patent US20230165856A1, “DAPAGLIFLOZIN AND AMBRISENTAN FOR THE PREVENTION AND TREATMENT OF COVID-19” (AstraZeneca AB, priority 2020, published 2023).
Where two headings read alike, the source gives them in different places.

How the values were obtained:
[1] = biological target: T1, endothelin A (ETA) receptor (Homo sapiens, UniProt P25101)
T1 sequence (P25101 21-427): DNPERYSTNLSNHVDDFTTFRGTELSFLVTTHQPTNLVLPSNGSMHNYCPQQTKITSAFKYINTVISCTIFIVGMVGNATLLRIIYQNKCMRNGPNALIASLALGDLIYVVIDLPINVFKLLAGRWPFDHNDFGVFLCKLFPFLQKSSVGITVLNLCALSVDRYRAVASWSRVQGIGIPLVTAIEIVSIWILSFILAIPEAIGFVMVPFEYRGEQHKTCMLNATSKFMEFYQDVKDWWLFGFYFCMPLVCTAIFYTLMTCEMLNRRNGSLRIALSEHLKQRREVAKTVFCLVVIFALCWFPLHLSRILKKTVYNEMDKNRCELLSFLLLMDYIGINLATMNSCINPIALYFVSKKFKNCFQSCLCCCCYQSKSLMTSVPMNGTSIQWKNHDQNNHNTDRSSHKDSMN

[2] = human, in vivo
[3] = experimental pig model of acute lung injury
[4] = endotoxaemic sheep
[5] = HF patients with and without type 2 diabetes mellitus

For `COC(c1ccccc1)(c1ccccc1)[C@H](Oc1nc(C)cc(C)n1)C(=O)O` [Ambrisentan, (2S)-2-[(4,6-dimethylpyrimidin-2-yl)oxy]-3-methoxy-3,3-diphenylpropanoic acid], the “selectivity for the ETA versus the ETB receptor” value [1] is listed as “approximately 4000 fold” and the “selectivity for the ET-A receptor compared to bosentan” value ([1]; compared to bosentan) is listed as “greater selectivity”.
In the case of `COc1ccccc1Oc1c(NS(=O)(=O)c2ccc(C(C)(C)C)cc2)nc(-c2ncccn2)nc1OCCO` [Bosentan], the RVSP [2] is given as “rapid and sustained improvement” and the oxygenation [2] is given as “gradual improvement”.
In the case of `COc1cc(OC)nc(O[C@H](C(=O)O)C(OC)(c2ccccc2)c2ccccc2)n1` [LU-135252], the oxygenation [3] is given as “improved oxygenation”.
In the case of `COc1ccccc1Oc1c(NS(=O)(=O)c2ccc(C(C)C)cn2)nc(-c2ccnc(-c3nnn[nH]3)c2)nc1OCCO` [Tezosentan], the lung injury [4] is listed as “attenuated lung injury”.
In the case of `CCOc1ccc(Cc2cc([C@@H]3O[C@H](CO)[C@@H](O)[C@H](O)[C@H]3O)ccc2Cl)cc1` [dapagliflozin], the “cardiovascular (CV) death” value [5] is given as “reduced” and the “risk for hospitalization for heart failure (HF)” value [5] is given as “reduce the risk”.
